Assay results reported in US12263156B2, “Use of small molecule inhibitors of the BfrB:Bfd interaction in biofilms” (priority 2020, dated 2025).

Test system: EYFP-expressing P. aeruginosa PAO1 pellicle biofilms
Experiment: Pellicle biofilm assay (CLSM imaging, COMSTAT biomass)
Type: cell-based, Pseudomonas aeruginosa
Conditions: 2-day old pellicles, 24 h; KM-5-25 80 μM, KM-5-66 50 μM (about 1.2× the IC50)
Protocol: Pellicle biofilms of EYFP-expressing P. aeruginosa PAO1 or clinical isolates were grown in PI media supplemented with 20 μM Fe. Starter cultures were diluted to OD600=0.001 in 4 mL media, placed in 35×10 mm petri dishes and incubated statically at 30° C. for 48 hours. The pellicles were transferred onto circular (1.5 cm diameter) glass coverslips by gently allowing the surface of a coverslip to contact a pellicle. The pellicle-adhered coverslip was washed in PBS and then deposited on top of 1.5 mL of AB challenge media contained in a well of a 12-well microplate, with the pellicle exposed to the media. […] The coverslip-adhered pellicles were exposed to challenge media at 30° C. for 24 hours, changing the challenge media every 12 hours by transferring the pellicle-adhered coverslip to a new plate containing pre-warmed challenge media.
Excess fluorescent dye was washed with PBS, the coverslip was mounted on a glass slide using 5 μL of SlowFade (Invitrogen, Carlsbad, CA) and the edges sealed with fingernail polish. CLSM image stacks (z-step size of 0.3 μm) were acquired with the aid of a Leica TCS SP8 microscope, as described above. Quantitative analysis was performed by determination of pellicle biomass using COMSTAT^54 and the Otsu method of automatic thresholding.^85
To expand the observations made with flow cell biofilms into a second biofilm model, the susceptibility of biofilms grown at the air-liquid interface (pellicles) was also studied.^56-57 Pellicle biofilms (henceforth pellicles) are an attractive alternative platform to study biofilms because pellicles are amenable to imaging by CLSM and to harvesting, which can be desirable for additional biofilm analysis.^26 To determine the susceptibility of pellicles to antibiotics or inhibitors of the BfrB-Bfd complex, 2-day old pellicles of EYFP-expressing P. aeruginosa cells were cultured in PI media supplemented with 20 μM Fe. The pellicles were transferred onto glass coverslips by allowing the surface of the coverslip to contact a pellicle.

SMILES | cells in the pellicle treated (killed), COMSTAT
O=C1NC(=O)c2c(NCc3cc(Cl)ccc3O)cccc21 [KM-5-25] | ~85%
O=C1NC(=O)c2c(NCCCc3cc(O)cc(Cl)c3)cccc21 [KM-5-66] | ~85%
